# Where two headings read alike, the source gives them in different places. Ends that are not written are not given here.
# Experiments:
# Type in all cases: cell-based
# Alternaria brassicae = experiment: Antifungal growth inhibition test in liquid medium
# Botrytis cinerea sp = experiment: Antifungal growth inhibition test in liquid medium
# Botrytis cinerea myc = experiment: Antifungal growth inhibition test in liquid medium
# Cladosporium sp = experiment: Antifungal growth inhibition test in liquid medium
# Cladosporium myc = experiment: Antifungal growth inhibition test in liquid medium
# [1] = tested on: Helminthosporium teres sp; experiment: Antifungal growth inhibition test in liquid medium
# Rhizoctonia solani myc = experiment: Antifungal growth inhibition test in liquid medium
# Fusarium culmorum sp = experiment: Antifungal growth inhibition test in liquid medium
# Excerpt: (§1) Les composés des pics 5, 7 et 8 de la figure 1 ont été testées vis-à-vis d'un ensemble de champignons phytopathogènes. Trois doses (10, 20, et 40 ppm) ont été employées pour chacun des composés.
# (§2) L'activité antifongique a été détectée par un test d'inhibition de croissance en milieu liquide. Les spores des champignons à tester ont été mises en suspension dans un milieu de culture de type "Pomme de terre-Glucose". De préférence, on utilise 12 g de milieu Potato Dextrose Broth (Difco) pour 1 litre d'eau déminéralisée. Deux antibiotiques ont été rajoutés au milieu de culture: la tétracycline (concentration finale de 10 µg/ml) et la céfotaxime (100 µg/ml). On dépose 10 µl de chaque composé à tester dans des plaques de microtitration en présence de 90 µl de milieu de culture contenant les spores (à une concentration finale de 10^4 spores/ml). L'incubation a été réalisée en chambre humide à 30°C durant 48 heures. La croissance fongique a été observée au microscope photonique après 24 h et quantifiée après 48 heures par mesure de l'absorbance à 600 nm à l'aide d'un spectrophotomètre lecteur de plaque de microtitration. L'activité des composés contre les champignons phytopathogènes est exprimée par un pourcentage d'inhibition de croissance correspondant à 100 x (1 - absorbance avec produit/ absorbance du témoin sans produit), l'absorbance étant mesurée à 600 nm, 5 jours après le début de l'expérience.
# Phytophthora myc = experiment: Antifungal growth inhibition test in liquid medium
# Excerpt: as §1, §2
# Piricularia oryzae sp = tested on: Piricularia oryzae sp
# Septoria tritici sp = experiment: Antifungal growth inhibition test in liquid medium
# Escherichia coli CIP548 = experiment: Bacterial growth inhibition test in Petri dish (solid medium), MIC; conditions: MIC extrapolated from inhibition diameter vs log10 concentration
# Salmonella sp. = experiment: as above; conditions: MIC extrapolated from inhibition diameter vs log10 concentration
# Experimental: Deux tests ont été utilisés pour mesurer l'activité antibactérienne des pseudopeptides, un test d'inhibition de la croissance bactérienne en microplaques (de 96 puits) en milieu liquide et un test d'inhibition de la croissance bactérienne en boîte de Pétri en milieu solide. • * Test en microplaques: La culture bactérienne à tester est prélevée en phase exponentielle, puis diluée au 1/500^ème dans du milieu liquide TSB frais. Chaque puits de la microplaque est rempli avec 100 µl de suspension bactérienne diluée. Dans le premier puits, 100 µl de l'échantillon de pseudopeptide à tester est ajouté à la suspension bactérienne, puis l'échantillon est dilué de 2 en 2 en transférant d'un puits à l'autre 100 µl de suspension. La lecture de la microplaque se fait en mesurant la densité optique à […] (DO600nm) après 24h d'incubation à 28°C ou 37°C selon les bactéries cibles. Connaissant la concentration en pseudopeptide de l'échantillon de départ, ce test permet de déterminer la valeur de la CMI (Concentration Minimale d'Inhibition de la croissance bactérienne). Dans ce test, la CMI correspond à la concentration de l'échantillon pour lequel la DO600nm est inférieure à celle du témoin de culture. • * Test en boîte de Pétri: La culture bactérienne à tester est prélevée en phase exponentielle, puis incorporée à 10 ml d'une gélose dite "sous-couche" (Agarose 1% poids/vol; NaCl 100 mM; Trypcase 0.03 % poids/vol; Tampon phosphate 10 mM pH7.4) à raison de 2.10^5 bactéries/ml. Le mélange est coulé dans une boîte de Pétri ordinaire. 9 puits d'environ 10 µl de volume sont formés dans la "sous-couche" à l'aide d'un embout de pipette stérile de 10 ml. Ces puits sont remplis avec une série de dilutions des pseudopeptides à tester (concentration initiale 500 µg/ml, et dilution de deux en deux jusqu'à 1,95 µg/ml). Après diffusion à température ambiante pendant 2h, une gélose dite "sur-couche" (Agarose 1% wt/vol; Trypcase 6 % wt/vol; Tampon phosphate 10 mM pH7.4) est ajoutée sur la sous-couche à raison de 5 à 10 ml. Après solidification, l'ensemble est mis à incuber pendant une nuit. Le diamètre d'inhibition de la culture bactérienne autour de chaque puits est mesuré en mm; il existe une relation linéaire entre le diamètre d'inhibition et le log10 de la concentration en pseudopeptide qui permet de déterminer par extrapolation la valeur de la CMI.
# Une première série de résultats a été obtenue en utilisant le test en boîte de Pétri vis-à-vis de bactéries non pathogènes issues de la collection de Travaux pratiques du laboratoire de Pathologie Comparée de l'Université de Montpellier (France). Dans cette série, les pseudopeptides des pics 5, 7, 8,10 et 11 ont été testés (Tableau 4).
# Klebsiella pneumoniae = experiment: as above; conditions: MIC extrapolated from inhibition diameter vs log10 concentration
# [2] = tested on: Proteus vulgaris CIP58.60; experiment: as above; conditions: MIC extrapolated from inhibition diameter vs log10 concentration
# Serratia entomophila = experiment: as above; conditions: MIC extrapolated from inhibition diameter vs log10 concentration
# Staphylococcus aureus = experiment: as above; conditions: MIC extrapolated from inhibition diameter vs log10 concentration
# [3] = tested on: Staphylococcus epidermidis; experiment: as above; conditions: MIC extrapolated from inhibition diameter vs log10 concentration
# Streptococcus Gr. D = experiment: as above; conditions: MIC extrapolated from inhibition diameter vs log10 concentration
# Pseudomonas fluorescens = experiment: as above; conditions: MIC extrapolated from inhibition diameter vs log10 concentration
# Bacillus megaterium = experiment: as above; conditions: MIC extrapolated from inhibition diameter vs log10 concentration
substance,measurement,setting,value
"Composé 5: pseudopeptide du pic n° 5 (HPLC, Figure 1) de Xenorhabdus nematophilus F1; Famille 1: Lys Lys Lys Lys Lys Gly; 1052 Da (KKKKKG; also: pseudopeptide modifications)",pourcentage d'inhibition de croissance,Alternaria brassicae; 10 ppm,82%
same,pourcentage d'inhibition de croissance,Alternaria brassicae; 20 ppm,84%
same,pourcentage d'inhibition de croissance,Alternaria brassicae; 40 ppm,83%
same,pourcentage d'inhibition de croissance,Botrytis cinerea sp; 10 ppm,38%
same,pourcentage d'inhibition de croissance,Botrytis cinerea sp; 20 ppm,95%
same,pourcentage d'inhibition de croissance,Botrytis cinerea sp; 40 ppm,95%
same,pourcentage d'inhibition de croissance,Botrytis cinerea myc; 10 ppm,21%
same,pourcentage d'inhibition de croissance,Botrytis cinerea myc; 20 ppm,34%
same,pourcentage d'inhibition de croissance,Botrytis cinerea myc; 40 ppm,60%
same,pourcentage d'inhibition de croissance,Cladosporium sp; 10 ppm,94%
same,pourcentage d'inhibition de croissance,Cladosporium sp; 20 ppm,94%
same,pourcentage d'inhibition de croissance,Cladosporium sp; 40 ppm,94%
same,pourcentage d'inhibition de croissance,Cladosporium myc; 10 ppm,89%
same,pourcentage d'inhibition de croissance,Cladosporium myc; 20 ppm,90%
same,pourcentage d'inhibition de croissance,Cladosporium myc; 40 ppm,89%
same,pourcentage d'inhibition de croissance,[1]; 10 ppm,70%
same,pourcentage d'inhibition de croissance,[1]; 20 ppm,91%
same,pourcentage d'inhibition de croissance,[1]; 40 ppm,95%
same,pourcentage d'inhibition de croissance,Rhizoctonia solani myc; 10 ppm,9.7%
same,pourcentage d'inhibition de croissance,Rhizoctonia solani myc; 20 ppm,85%
same,pourcentage d'inhibition de croissance,Rhizoctonia solani myc; 40 ppm,93%
same,pourcentage d'inhibition de croissance,Fusarium culmorum sp; 10 ppm,96%
same,pourcentage d'inhibition de croissance,Fusarium culmorum sp; 20 ppm,96%
same,pourcentage d'inhibition de croissance,Fusarium culmorum sp; 40 ppm,96%
same,pourcentage d'inhibition de croissance,Phytophthora myc; 10 ppm,79%
same,pourcentage d'inhibition de croissance,Phytophthora myc; 20 ppm,78%
same,pourcentage d'inhibition de croissance,Phytophthora myc; 40 ppm,77%
same,pourcentage d'inhibition de croissance,Piricularia oryzae sp; 10 ppm,18%
same,pourcentage d'inhibition de croissance,Piricularia oryzae sp; 20 ppm,22%
same,pourcentage d'inhibition de croissance,Piricularia oryzae sp; 40 ppm,45%
same,pourcentage d'inhibition de croissance,Septoria tritici sp; 10 ppm,88%
same,pourcentage d'inhibition de croissance,Septoria tritici sp; 20 ppm,88%
same,pourcentage d'inhibition de croissance,Septoria tritici sp; 40 ppm,85%
same,CMI,Escherichia coli CIP548,15 µg/mL
same,CMI,Salmonella sp.,30 µg/mL
same,CMI,Klebsiella pneumoniae,30 µg/mL
same,CMI,[2],200 µg/mL
same,CMI,Serratia entomophila,60 µg/mL
same,CMI,Staphylococcus aureus,"7,5 µg/ml"
same,CMI,[3],30 µg/mL
same,CMI,Streptococcus Gr. D,200 µg/mL
same,CMI,Pseudomonas fluorescens,3 µg/mL
same,CMI,Bacillus megaterium,"0,75 µg/ml"
Composé 7: pseudopeptide du pic n° 7 de Xenorhabdus nematophilus F1; Famille 2: Lys Lys Lys Lys Arg Gly; 1080 Da; isomère de masse du pic 11 (KKKKRG; also: pseudopeptide modifications),pourcentage d'inhibition de croissance,Alternaria brassicae; 10 ppm,25%
same,pourcentage d'inhibition de croissance,Alternaria brassicae; 20 ppm,47%
same,pourcentage d'inhibition de croissance,Alternaria brassicae; 40 ppm,83%
same,pourcentage d'inhibition de croissance,Botrytis cinerea sp; 10 ppm,53%
same,pourcentage d'inhibition de croissance,Botrytis cinerea sp; 20 ppm,12%
same,pourcentage d'inhibition de croissance,Botrytis cinerea sp; 40 ppm,83%
same,pourcentage d'inhibition de croissance,Botrytis cinerea myc; 10 ppm,0%
same,pourcentage d'inhibition de croissance,Botrytis cinerea myc; 20 ppm,6%
same,pourcentage d'inhibition de croissance,Botrytis cinerea myc; 40 ppm,34%
same,pourcentage d'inhibition de croissance,Cladosporium sp; 10 ppm,74%
same,pourcentage d'inhibition de croissance,Cladosporium sp; 20 ppm,95%
same,pourcentage d'inhibition de croissance,Cladosporium sp; 40 ppm,95%
same,pourcentage d'inhibition de croissance,Cladosporium myc; 10 ppm,0%
same,pourcentage d'inhibition de croissance,Cladosporium myc; 20 ppm,40%
same,pourcentage d'inhibition de croissance,Cladosporium myc; 40 ppm,91%
same,pourcentage d'inhibition de croissance,[1]; 10 ppm,33%
same,pourcentage d'inhibition de croissance,[1]; 20 ppm,47%
same,pourcentage d'inhibition de croissance,[1]; 40 ppm,80%
same,pourcentage d'inhibition de croissance,Rhizoctonia solani myc; 10 ppm,6%
same,pourcentage d'inhibition de croissance,Rhizoctonia solani myc; 20 ppm,7%
same,pourcentage d'inhibition de croissance,Rhizoctonia solani myc; 40 ppm,64%
same,pourcentage d'inhibition de croissance,Fusarium culmorum sp; 10 ppm,66%
same,pourcentage d'inhibition de croissance,Fusarium culmorum sp; 20 ppm,97%
same,pourcentage d'inhibition de croissance,Fusarium culmorum sp; 40 ppm,97%
same,pourcentage d'inhibition de croissance,Phytophthora myc; 10 ppm,71%
same,pourcentage d'inhibition de croissance,Phytophthora myc; 20 ppm,81%
same,pourcentage d'inhibition de croissance,Phytophthora myc; 40 ppm,78%
same,pourcentage d'inhibition de croissance,Piricularia oryzae sp; 10 ppm,12%
same,pourcentage d'inhibition de croissance,Piricularia oryzae sp; 20 ppm,15%
same,pourcentage d'inhibition de croissance,Piricularia oryzae sp; 40 ppm,21%
same,pourcentage d'inhibition de croissance,Septoria tritici sp; 10 ppm,0%
same,pourcentage d'inhibition de croissance,Septoria tritici sp; 20 ppm,86%
same,pourcentage d'inhibition de croissance,Septoria tritici sp; 40 ppm,89%
same,CMI,Escherichia coli CIP548,15 µg/mL
same,CMI,Salmonella sp.,15 µg/mL
same,CMI,Klebsiella pneumoniae,30 µg/mL
same,CMI,[2],100 µg/mL
same,CMI,Serratia entomophila,60 µg/mL
same,CMI,Staphylococcus aureus,15 µg/mL
same,CMI,Pseudomonas fluorescens,"1,5 µg/ml"
same,CMI,Bacillus megaterium,"1,5 µg/ml"
"Composé 10: pseudopeptide du pic n° 10 de Xenorhabdus nematophilus F1; Famille 2: Lys Lys Lys Lys Arg Gly; 1094 Da; structure en Figure 3 (KKKKRG; also: pseudopeptide modifications, not given here)",CMI,Escherichia coli CIP548,"7,5 µg/ml"
same,CMI,Salmonella sp.,30 µg/mL
same,CMI,Klebsiella pneumoniae,15 µg/mL
same,CMI,[2],200 µg/mL
same,CMI,Serratia entomophila,15 µg/mL
same,CMI,Staphylococcus aureus,"7,5 µg/ml"
same,CMI,Pseudomonas fluorescens,"1,5 µg/ml"
same,CMI,Bacillus megaterium,"0,75 µg/ml"
"Composé 11: pseudopeptide du pic n° 11 de Xenorhabdus nematophilus F1; Famille 1: Lys Lys Lys Lys Lys Gly; 1080 Da; isomère de masse du pic 7 (KKKKKG; also: pseudopeptide modifications, not given here)",CMI,Escherichia coli CIP548,15 µg/mL
same,CMI,Salmonella sp.,15 µg/mL
same,CMI,Klebsiella pneumoniae,30 µg/mL
same,CMI,[2],200 µg/mL
same,CMI,Serratia entomophila,30 µg/mL
same,CMI,Staphylococcus aureus,"7,5 µg/ml"
same,CMI,Pseudomonas fluorescens,"1,5 µg/ml"
same,CMI,Bacillus megaterium,"0,75 µg/ml"
Polymixine [reference compound],CMI,Escherichia coli CIP548,"0,25 µg/ml"
same,CMI,Salmonella sp.,"0,5 µg/ml"
same,CMI,[2],50 µg/mL
same,CMI,Staphylococcus aureus,20 µg/mL
same,CMI,[3],20 µg/mL

# From patent EP1351977B1, “ANTIMICROBIAL PSEUDOPEPTIDES” (INSTITUT NATIONAL DE LA RECHERCHE AGRONOMIQUE (INRA), priority 2001, dated 2004)
